Source: patent publication US20080139664A1, “ANTI-GLYCATION AGENTS FOR PREVENTING AGE-, DIABETES-, AND SMOKING-RELATED COMPLICATIONS” (NATIONAL RESEARCH COUNCIL OF CANADA, priority 2001, published 2008)

What was measured:
[1] = system: bovine serum albumin (BSA); assay: Fluorescamine assay of free primary amino groups of BSA incubated with D-ribose; type: biochemical; details: for Unreacted amino group: free primary amino group on BSA after 5 days at 37° C., agent at 16.8 times IC50, 64% without agent
Method: Fluorescamine assay (Yeboah F. et al., J. Agric. Food Chem. 48, 2766-2774 (2000)) was performed on incubated mixtures of BSA and D-ribose, with or without the identified anti-glycation agents. The mixtures contained BSA (0.075 mM protein concentration or 4.53 mM of Lys residue concentration) and D-ribose (50 mM). […] The fluorescamine assay determines the number of free lysine residues of BSA. In this experiment, the final volume of the incubation mixtures was 10 mL and the incubation time was 5 days at 37° C. Prior to the fluorescamine assay, the proteins were isolated by reverse phase HPLC. The protein content was determined using the Bio-Rad protein determination reagent (Bradford method). The fluorescamine assay was done in triplicate.

lysozyme = assay: ESI-MS of lysozyme glycoforms after incubation with D-ribose; details: 37° C., 5 days; for Peak area as % of total area of all glycoforms, 14,569: lysozyme + 2D-ribose − 2H2O (14,569 Da); for Peak area as % of total area of all glycoforms, 14,551: lysozyme + 2D-ribose − 3H2O (14,551 Da); for Peak area as % of total area of all glycoforms, 14,533: lysozyme + 2D-ribose − 5H2O (14,533 Da); for Peak area as % of total area of all glycoforms, 14,515: lysozyme + 2D-ribose − 6H2O (14,515 Da); for Peak area as % of total area of all glycoforms, 14,419: lysozyme + D-ribose − 2H2O (14,419 Da); for Peak area as % of total area of all glycoforms, 14,401: lysozyme + D-ribose − 3H2O (14,401 Da); for Peak area as % of total area of all glycoforms, 14,437: lysozyme + D-ribose − H2O (14,437 Da); for Peak area as % of total area of all glycoforms, 14,496: lysozyme + D-ribose − H2O with one carboxymethylated Lys residue (14,496 Da); for Peak area as % of total area of all glycoforms, 14,364: lysozyme with one carboxymethylated Lys residue (14,364 Da); for Peak area as % of total area of all glycoforms, 14,305: unmodified lysozyme (14,305 Da);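 for all read-outs here: lysozyme incubated with D-ribose, with or without anti-glycation agents, then separated by reversed-phase HPLC and analysed by electrospray mass spectrometry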
Method: The effect of anti-glycation agents on the accumulation of glycated forms (glycoforms) of protein was evaluated by using electrospray mass spectrometry (ESI-MS). As the molecular mass of BSA was too large to monitor the small mass changes of its glycoforms, lysozyme was incubated with D-ribose and anti-glycants. Lysozyme and its glycoforms were isolated by RP-HPLC and analyzed by mass spectrometry.
Samples of lysozyme (0.756 mM; 4.54 mM of Lys residues) and D-ribose (50 mM) were incubated in the presence and absence of the selected anti-glycation agents at 37° C. for 5 days and subjected to electrospray mass spectrometry (ESI-MS) in order to characterize the protein intermediates as well as carboxymethylated lysozyme. Prior to MS measurements, the proteins were isolated by reversed phase-HPLC and were semi-dried by freeze drying.

[2] = system: bovine serum albumin (BSA)

Compound	Unreacted amino group [1] [%]	Peak area as % of total area of all glycoforms, 14,569 (lysozyme) [%]	Peak area as % of total area of all glycoforms, 14,551 (lysozyme) [%]	Peak area as % of total area of all glycoforms, 14,533 (lysozyme) [%]	Peak area as % of total area of all glycoforms, 14,515 (lysozyme) [%]	Peak area as % of total area of all glycoforms, 14,419 (lysozyme) [%]	Peak area as % of total area of all glycoforms, 14,401 (lysozyme) [%]	Peak area as % of total area of all glycoforms, 14,437 (lysozyme) [%]	Peak area as % of total area of all glycoforms, 14,496 (lysozyme) [%]	Peak area as % of total area of all glycoforms, 14,364 (lysozyme) [%]	Peak area as % of total area of all glycoforms, 14,305 (lysozyme) [%]	IC50 [2] [µM]	effect on protection of amino groups of BSA ([1]; in words)
NCCc1ccc(O)c(O)c1 [Dopamine]	60	1.2	0.0	0.0	0.0	1.6	1.3	13.4	0.0	3.3	79.2	62	–
Cc1ncc([N+](=O)[O-])n1CC(O)CCl (stereo not shown) [Ornidazole]	60	4.8	3.4	2.0	0.9	6.7	0.0	23.4	0.0	3.2	54.2	570	–
O=Cc1ccc(O)c(O)c1 [3,4-Dihydroxybenzaldehyde]	32	1.8	3.0	0.0	1.2	3.1	0.0	10.9	1.5	0.0	78.6	120	seem to accelerate the modification of the amino groups
CS(=O)(=O)Nc1ccc([N+](=O)[O-])cc1Oc1ccccc1 [Nimesulide]	69	5.2	3.8	2.3	1.3	7.6	0.0	22.6	0.0	3.4	49.8	350	–
CCCOC(=O)c1cc(O)c(O)c(O)c1 [Propyl gallate]	28	0.0	0.0	0.0	0.0	1.3	0.0	7.7	0.0	4.4	86.6	330	–
Oc1ccc(CC2NCCc3cc(O)c(O)cc32)cc1O (racemic) [(±)-Tetrahydropapaveroline]	51	2.3	0.7	0.8	0.0	2.8	2.1	17.6	0.9	3.9	68.9	90	–
O=c1cc(-c2ccccc2)oc2cc(O)c(O)c(O)c12 [Baicalein]	48	0.0	0.0	0.0	0.0	0.0	0.0	5.9	0.0	0.0	94.1	49	–
N[C@@H](Cc1ccc(O)c(O)c1)C(=O)O [L-DOPA]	60	3.0	0.7	0.8	0.7	2.1	1.8	21.1	1.2	3.9	64.7	75	–
C[C@@](Cc1ccc(O)c(O)c1)(NN)C(=O)O [S(−)-Carbidopa]	89	0.0	2.4	0.8	0.6	3.2	2.0	18.4	0.9	3.7	67.9	140	–
O=c1oc2c(O)c(O)cc3c(=O)oc4c(O)c(O)cc1c4c23 [Ellagic acid]	52	0.0	0.0	0.0	0.0	1.2	0.0	14.6	0.0	1.1	83.1	40	–
O=c1c(O)c(-c2ccccc2)oc2cc(O)cc(O)c12 [Galangin]	64	4.3	5.2	2.2	1.0	10.2	0.8	20.2	0.0	4.1	48.0	110	–
